One experiment deals with MexG (Pseudomonas aeruginosa, UniProt Q9HWH6). Kind of experiment: intrinsic tryptophan fluorescence quenching. It is filed as binding.
In another experiment the target is T1, MexG-HAWA (Pseudomonas aeruginosa, UniProt Q9HWH6, H95A/W98A).
T1 sequence (Q9HWH6 1-148 H95A/W98A): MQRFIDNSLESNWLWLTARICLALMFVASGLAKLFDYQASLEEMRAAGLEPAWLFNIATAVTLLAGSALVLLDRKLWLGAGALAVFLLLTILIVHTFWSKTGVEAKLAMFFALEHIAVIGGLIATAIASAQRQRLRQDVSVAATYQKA
Kind of experiment: intrinsic tryptophan fluorescence quenching. It is filed as binding.

Structures are written as SMILES. pKd: −log10 of the molar value.

Turning to `Cn1c2cccc(=O)c-2nc2ccccc21` [pyocyanin], the pKd at MexG is roughly 6.22; on MexG-HAWA, roughly 5.15.

The pKd is the negative decadic logarithm of the Kd, by convention in mol/L. A lower pKd goes with a large Kd.
